From publication PMC12064818, “A general assay platform to study protein pharmacology using ligand-dependent structural dynamics” (Nature Communications, 2025)

Target: FLuc-C-NLuc (firefly luciferase) (Photinus pyralis, UniProt P08659, form not given/L550V)
Experiment: SDR assay, FLuc-C-NLuc
Settings: for SDR + 10 mM ATP / SDR No ATP: 1 nM FLuc-C-NLuc, normalized activity, Log [Compound]; for SDR+ATP / SDR: Log[Compound]; for SDR+ATP: 10 mM ATP; for SDR: absence of ATP

FLuc-C-NLuc (firefly luciferase), sequence (P08659 2-550 L550V, form open): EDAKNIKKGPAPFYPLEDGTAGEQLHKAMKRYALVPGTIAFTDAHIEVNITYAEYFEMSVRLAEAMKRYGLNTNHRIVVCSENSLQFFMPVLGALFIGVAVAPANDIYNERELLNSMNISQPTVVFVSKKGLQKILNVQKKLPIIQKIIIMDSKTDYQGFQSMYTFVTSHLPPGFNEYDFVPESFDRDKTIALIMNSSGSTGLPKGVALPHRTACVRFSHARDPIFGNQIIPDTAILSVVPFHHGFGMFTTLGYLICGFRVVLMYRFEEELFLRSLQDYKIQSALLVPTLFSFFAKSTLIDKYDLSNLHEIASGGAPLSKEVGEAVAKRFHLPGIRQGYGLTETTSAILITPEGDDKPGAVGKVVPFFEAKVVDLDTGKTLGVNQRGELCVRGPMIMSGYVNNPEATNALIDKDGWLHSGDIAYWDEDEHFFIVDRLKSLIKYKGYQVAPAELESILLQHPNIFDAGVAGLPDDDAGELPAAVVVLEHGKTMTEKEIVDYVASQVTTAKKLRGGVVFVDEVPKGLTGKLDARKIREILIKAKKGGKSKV

Question: How did the “SDR + 10 mM ATP” value (M -4.48) turn out when CC(CNC(=O)C1CCN(C(=O)c2ncn3c2COC(c2ccccc2)C3)CC1)c1ccccc1 (stereo not shown) [compound 00449795] was run?
Answer: Its value is 34.2.

Question: What about the “SDR No ATP” value (M -4.48) of the same molecule?
Answer: The value was -1.4.

Question: What about the “SDR + 10 mM ATP” value (M -4.96) of the same molecule?
Answer: Its value is 33.8.

Question: What about the “SDR No ATP” value (M -4.96) of the same molecule?
Answer: Its value is -2.1.

Question: What about the “SDR + 10 mM ATP” value (M -5.44) of the same molecule?
Answer: The value was 30.7.

Question: What about the “SDR No ATP” value (M -5.44) of the same molecule?
Answer: Its value is -1.5.

Question: And the “SDR + 10 mM ATP” value (M -5.91)?
Answer: Its value is 28.0.

Question: And the “SDR No ATP” value (M -5.91)?
Answer: Its value is -3.2.

Question: What about the “SDR + 10 mM ATP” value (M -6.39) of the same molecule?
Answer: Its value is 22.7.

Question: And the “SDR No ATP” value (M -6.39)?
Answer: The value was -2.0.

Question: And the “SDR + 10 mM ATP” value (M -6.87)?
Answer: The value was 5.0.

Question: And the “SDR No ATP” value (M -6.87)?
Answer: The value was -1.8.

Question: And the “SDR + 10 mM ATP” value (M -7.35)?
Answer: Its value is 2.2.

Question: What about the “SDR No ATP” value (M -7.35) of the same molecule?
Answer: Its value is -2.1.

Question: What about the “SDR + 10 mM ATP” value (M -7.82) of the same molecule?
Answer: Its value is -0.7.

Question: What about the “SDR No ATP” value (M -7.82) of the same molecule?
Answer: Its value is -1.8.

Question: What about the “SDR + 10 mM ATP” value (M -8.30) of the same molecule?
Answer: Its value is -0.9.

Question: What about the “SDR No ATP” value (M -8.30) of the same molecule?
Answer: Its value is -1.6.

Question: What about the “SDR + 10 mM ATP” value (M -8.78) of the same molecule?
Answer: The value was -2.4.

Question: And the “SDR No ATP” value (M -8.78)?
Answer: The value was -2.4.

Question: What about the “Efficacy (%) FLuc-C-NLuc SDR (-ATP)” value (- ATP) of the same molecule?
Answer: The value was 0.00%.

Question: What about the “SDR+ATP” value (M -4.48) of the same molecule?
Answer: Its value is 68.61.

Question: And the SDR (M -4.48)?
Answer: Its SDR is 10.53.

Question: And the “SDR+ATP” value (M -4.96)?
Answer: Its value is 61.30.

Question: What about the SDR (M -4.96) of the same molecule?
Answer: The SDR was 11.57.

Question: And the “SDR+ATP” value (M -5.44)?
Answer: The value was 53.17.

Question: What about the SDR (M -5.44) of the same molecule?
Answer: Its SDR is 11.00.

Question: And the “SDR+ATP” value (M -5.91)?
Answer: The value was 34.17.

Question: And the SDR (M -5.91)?
Answer: Its SDR is 13.65.

Question: What about the “SDR+ATP” value (M -6.39) of the same molecule?
Answer: Its value is 20.63.

Question: What about the SDR (M -6.39) of the same molecule?
Answer: Its SDR is 10.99.

Question: And the “SDR+ATP” value (M -6.87)?
Answer: Its value is 11.14.

Question: What about the SDR (M -6.87) of the same molecule?
Answer: Its SDR is 10.66.

Question: And the “SDR+ATP” value (M -7.35)?
Answer: Its value is 7.50.

Question: And the SDR (M -7.35)?
Answer: Its SDR is 9.25.

Question: And the “SDR+ATP” value (M -7.82)?
Answer: Its value is 9.96.

Question: And the SDR (M -7.82)?
Answer: The SDR was 13.35.

Question: What about the “SDR+ATP” value (M -8.30) of the same molecule?
Answer: The value was 8.11.

Question: And the SDR (M -8.30)?
Answer: Its SDR is 10.95.

Question: And the “SDR+ATP” value (M -8.78)?
Answer: Its value is 7.12.

Question: And the SDR (M -8.78)?
Answer: Its SDR is 11.55.

Question: And the “SDR+ATP” value (M -9.25)?
Answer: Its value is 7.93.

Question: And the SDR (M -9.25)?
Answer: Its SDR is 9.61.
